In patent US11752084B2, “Methods for fat reduction or elimination of lipid droplets” (Alastin Skincare, Inc., priority 2017, dated 2023):

Columns and labels:
[1] = system: hyaluronic acid; conditions: ex vivo human skin model; cited from earlier work
[2] = system: 3T3-L1 adipocytes and J774 macrophages; test: Macrophage clustering on adipocytes; format: cell-based; conditions: for number of macrophages associated with adipocytes: FIG. 5A, ~100 adipocytes/condition
Method: 3T3-L1 adipocytes were untreated or treated with TNF-alpha (˜25 nM) for 24 hours. One set of TNF-alpha treated adipocytes was also treated with hexapeptide-11 (0.1 mg/mL). One set of J774 macrophages was treated with hexapeptide-11 (0.1 mg/mL) for 24 hours. The macrophages were added to the adipocytes. After an 1 hour incubation, the cells were placed on ice and incubated with a fluorescently labeled Cholera toxin B subunit to label the cell surface of macrophages a fluorescent green. The cells were then fixed with 4% formaldehyde for 15 minutes and then incubated with LipidTox to label the lipid droplets within the adipocytes a fluorescent red color. Four conditions were performed: (1) J774 macrophages with untreated adipocytes; (2) J774 macrophages with TNF-alpha treated adipocytes; (3) J774 macrophages with TNF alpha treated adipocytes plus hexapeptide-11 in the 1 hour incubation of both cell types; and (4) peptide pretreated J774 macrophages with hexapeptide-11 pretreated TNF-alpha treated adipocytes incubated together in the presence of hexapeptide-11. Images taken with a 60× objective were analyzed by counting the number of macrophages associated with ˜100 adipocytes for each condition.

[3] = system: Dermal Fibroblasts; test: Gene expression in fibroblasts by quantitative-PCR; format: cell-based; conditions: 72 hours exposure, vs untreated control
Method: Gene expression in fibroblasts were measured following 72 hours of exposure to hexapeptide-11.
Dermal Fibroblasts were plated in cell culture media and allowed to grow to approximately 85-90% confluency following manufacturer's guidelines. Cells were harvested and plated at 10,000 cells per cm^2 in 6-well dishes cultured for 3 days. On the third day, confluency was estimated by microscopy and the cell culture media was replaced. The cells were treated with hexpapeptide-11 at a 100× concentration or control buffer without peptide. The time at initial exposure to the peptide is considered time, t=0. Treated and untreated control cells were harvested, counted and extracted for RNA at 24 hours, 48 hours, and 72 hours following t=0. Cell pellets and isolated RNA were stored at −80° C. until analysis by quantitative-PCR.
The 72-hour time point RNA samples (treated and untreated) were used for gene expression analysis. RNA was converted to first strand cDNA and analyzed by quantitative-PCR.

Compound	stimulation of dermal hyaluronic acid level versus placebo [1] [%]	stimulation of epidermal hyaluronic acid level versus placebo [1] [%]	macrophage clustering ([2]; 0.1 mg/mL, TNF-alpha treated adipocytes)	number of macrophages associated with adipocytes [2]	adipocyte droplet breakdown ([2]; TNF-alpha and peptide treatments, FIG. 4 right panel)	Fold Change AMBRA1 [3] [fold]	Fold Change ATG4A [3] [fold]	Fold Change ATG5 [3] [fold]	Fold Change CASP3 [3] [fold]	Fold Change COL5A2 [3] [fold]	Fold Change IGF1 [3] [fold]	Fold Change MAPK14 [3] [fold]	Fold Change PDGFRA [3] [fold]	Fold Change PSMB5 [3] [fold]	Fold Change SOD3 [3] [fold]	Fold Change TNF [3] [fold]
CCCCCCCC(=O)CCc1ccc(O)c(OC)c1 [hydroxymethoxyphenyl decanone]	259	198	–	–	–	–	–	–	–	–	–	–	–	–	–	–
Phe-Val-Ala-Pro-Phe-Pro (FVAPFP) [hexapeptide-11]	–	–	increase macrophage clustering	increased	further adipocyte droplet breakdown	3.59	3.29	2.00	2.24	−65.65	−901.80	−83.67	−369.65	2.56	−101.59	−92.41
TNF-alpha [reference compound]	–	–	–	greatly increased	–	–	–	–	–	–	–	–	–	–	–	–
